Laboratory results as given in patent US10196393B2, “JAK inhibitors containing a 4-membered heterocyclic amide” (THERAVANCE BIOPHARMA R&D IP, LLC, priority 2017, dated 2019).
Read-outs that look alike come from different tables or passages of the source.

Experiments:
[1] = tested on: IL-13 induced pSTAT6 induction in lung tissue; test: Murine model of IL-13 induced pSTAT6 induction in lung tissue; assay type: in vivo; details: mouse lung, 1 mg/mL 50 μL oral aspiration, IL-13 challenge 4 h after dose, lungs at 5 hours
Text: Assay 4: Murine (Mouse) Model of IL-13 Induced pSTAT6 Induction in Lung Tissue
Il-13 is an important cytokine underlying the pathophysiology of asthma (Kudlacz et al. Eur. J. Pharmacol, 2008, 582,154-161). IL-13 binds to cell surface receptors activating members of the Janus family of kinases (JAK) which then phosphorylate STAT6 and subsequently activates further transcription pathways. In the described model, a dose of IL-13 was delivered locally into the lungs of mice to induce the phosphorylation of STAT6 (pSTAT6) which is then measured as the endpoint.
Adult balb/c mice from Harlan were used in the assay. On the day of study, animals were lightly anesthetized with isoflurane and administered either vehicle or test compound (1 mg/mL, 50 μL total volume over several breaths) via oral aspiration. Animals were placed in lateral recumbency post dose and monitored for full recovery from anesthesia before being returned to their home cage. Four hours later, animals were once again briefly anesthetized and challenged with either vehicle or IL-13 (0.03 μg total dose delivered, 50 μL total volume) via oral aspiration before being monitored for recovery from anesthesia and returned to their home cage. One hour after vehicle or IL-13 administration, lungs were collected for both pSTAT6 detection using an anti-pSTAT6 ELISA (rabbit mAb capture/coating antibody; mouse mAb detection/report antibody: anti-pSTAT6-pY641; secondary antibody: anti-mouse IgG-HRP) and analyzed for total drug concentration as described above in Assay 3.
Selected compounds of the invention were tested in the assay. Activity in the model is evidenced by a decrease in the level of pSTAT6 present in the lungs of treated animals at 5 hours compared to the vehicle treated, IL-13 challenged control animals. The difference between the control animals which were vehicle-treated, IL-13 challenged and the control animals which were vehicle-treated, vehicle challenged dictated the 0% and 100% inhibitory effect, respectively, in any given experiment.

JAK1 = JAK1 (Homo sapiens (Human), UniProt P23458); test: Biochemical JAK kinase assay (LanthaScreen), JAK1; details: converted from pIC50 with Cheng-Prusoff equation
JAK1, sequence (P23458 whole entry): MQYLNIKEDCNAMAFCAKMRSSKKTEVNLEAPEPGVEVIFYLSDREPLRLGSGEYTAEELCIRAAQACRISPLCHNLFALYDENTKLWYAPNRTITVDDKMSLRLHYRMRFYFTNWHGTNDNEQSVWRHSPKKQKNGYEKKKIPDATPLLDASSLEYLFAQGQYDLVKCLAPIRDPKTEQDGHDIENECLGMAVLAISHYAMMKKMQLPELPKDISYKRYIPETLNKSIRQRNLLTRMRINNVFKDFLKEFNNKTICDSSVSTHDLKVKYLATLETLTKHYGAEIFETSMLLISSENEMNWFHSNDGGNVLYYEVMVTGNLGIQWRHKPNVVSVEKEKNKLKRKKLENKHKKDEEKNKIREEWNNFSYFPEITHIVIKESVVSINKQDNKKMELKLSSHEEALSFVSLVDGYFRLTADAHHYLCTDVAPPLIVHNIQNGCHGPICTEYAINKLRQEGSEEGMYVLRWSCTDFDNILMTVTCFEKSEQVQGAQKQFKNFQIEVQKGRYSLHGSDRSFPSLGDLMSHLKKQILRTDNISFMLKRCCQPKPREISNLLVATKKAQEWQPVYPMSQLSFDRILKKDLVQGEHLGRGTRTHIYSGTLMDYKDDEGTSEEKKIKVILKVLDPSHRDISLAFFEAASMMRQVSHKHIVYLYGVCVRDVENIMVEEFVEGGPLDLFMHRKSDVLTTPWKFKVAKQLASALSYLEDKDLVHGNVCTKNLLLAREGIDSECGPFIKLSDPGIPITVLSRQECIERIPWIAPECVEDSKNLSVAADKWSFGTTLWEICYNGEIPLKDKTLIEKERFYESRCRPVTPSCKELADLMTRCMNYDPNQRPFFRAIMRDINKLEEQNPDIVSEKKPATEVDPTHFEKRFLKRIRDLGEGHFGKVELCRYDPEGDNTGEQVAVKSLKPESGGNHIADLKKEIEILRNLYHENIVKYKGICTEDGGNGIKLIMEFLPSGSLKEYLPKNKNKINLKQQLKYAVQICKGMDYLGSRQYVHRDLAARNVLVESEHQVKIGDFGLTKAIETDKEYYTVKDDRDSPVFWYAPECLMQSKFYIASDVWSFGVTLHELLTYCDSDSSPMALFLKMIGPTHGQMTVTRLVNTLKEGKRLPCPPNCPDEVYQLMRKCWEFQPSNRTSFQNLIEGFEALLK
Procedure: (§1) Assay 1: Biochemical JAK Kinase Assays
(§2) A panel of four LanthaScreen JAK biochemical assays (JAK1, 2, 3 and Tyk2) were carried in a common kinase reaction buffer (50 mM HEPES, pH 7.5, 0.01% Brij-35, 10 mM MgCl2, and 1 mM EGTA). Recombinant GST-tagged JAK enzymes and a GFP-tagged STAT1 peptide substrate were obtained from Life Technologies.
(§3) Serially diluted compounds were pre-incubated with each of the four JAK enzymes and the substrate in white 384-well microplates (Corning) at ambient temperature for 1 h. ATP was subsequently added to initiate the kinase reactions in 10 μL total volume, with 1% DMSO. […] The plates were allowed to incubate at ambient temperature for 1 h before being read on the EnVision reader (Perkin Elmer).
(§4) For dose-response analysis, percent inhibition data were plotted vs. compound concentrations, and IC50 values were determined from a 4-parameter robust fit model with the Prism software (GraphPad Software). Results were expressed as pIC50 (negative logarithm of IC50) and subsequently converted to pKi (negative logarithm of dissociation constant, Ki) using the Cheng-Prusoff equation.

JAK3 = JAK3 (Homo sapiens (Human), UniProt P52333); test: Biochemical JAK kinase assay (LanthaScreen), JAK3; details: converted from pIC50 with Cheng-Prusoff equation
JAK3, sequence (P52333 whole entry): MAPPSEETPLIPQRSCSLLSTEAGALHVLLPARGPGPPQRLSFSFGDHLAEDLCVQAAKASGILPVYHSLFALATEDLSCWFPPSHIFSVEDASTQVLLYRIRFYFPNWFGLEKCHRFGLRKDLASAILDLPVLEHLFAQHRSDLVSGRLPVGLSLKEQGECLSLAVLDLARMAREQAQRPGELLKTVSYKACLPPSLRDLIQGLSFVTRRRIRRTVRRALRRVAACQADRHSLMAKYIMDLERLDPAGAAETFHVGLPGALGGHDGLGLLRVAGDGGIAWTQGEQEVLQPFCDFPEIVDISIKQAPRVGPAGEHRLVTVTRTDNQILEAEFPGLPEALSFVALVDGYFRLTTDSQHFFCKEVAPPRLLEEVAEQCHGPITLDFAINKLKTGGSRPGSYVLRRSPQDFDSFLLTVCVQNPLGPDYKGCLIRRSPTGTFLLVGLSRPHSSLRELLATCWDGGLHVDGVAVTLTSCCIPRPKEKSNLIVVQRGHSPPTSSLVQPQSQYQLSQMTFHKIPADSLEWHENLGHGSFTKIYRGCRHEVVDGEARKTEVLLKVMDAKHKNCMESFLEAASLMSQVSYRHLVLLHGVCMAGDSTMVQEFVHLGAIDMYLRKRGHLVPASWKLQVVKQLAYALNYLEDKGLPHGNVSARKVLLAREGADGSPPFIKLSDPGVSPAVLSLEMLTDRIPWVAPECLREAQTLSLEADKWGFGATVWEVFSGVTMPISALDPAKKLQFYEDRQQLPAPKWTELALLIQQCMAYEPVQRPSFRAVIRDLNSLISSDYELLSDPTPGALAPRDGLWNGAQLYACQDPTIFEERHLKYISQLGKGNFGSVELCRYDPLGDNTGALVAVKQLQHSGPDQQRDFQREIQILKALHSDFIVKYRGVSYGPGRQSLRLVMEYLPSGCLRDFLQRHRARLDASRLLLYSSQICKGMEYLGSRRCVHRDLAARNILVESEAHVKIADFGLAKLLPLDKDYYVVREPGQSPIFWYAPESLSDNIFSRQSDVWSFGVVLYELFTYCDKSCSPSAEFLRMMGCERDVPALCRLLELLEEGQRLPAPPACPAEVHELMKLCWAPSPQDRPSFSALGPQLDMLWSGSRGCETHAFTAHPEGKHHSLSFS
Procedure: as §1, §2, §3, §4

[2] = tested on: IL-27 induced CXCL10 and CXCL9 secretion in EpiAirway tissue cultures; test: Inhibition of IL-27 induced chemokines CXCL9 and CXCL10 in human 3D airway cultures; assay type: cell-based; details: 192 h, Day 8, ±STDV
Procedure: Assay 7: Inhibition of IFNγ and IL-27 Induced Chemokines CXCL9 and CXCL10 in Human 3D Airway Cultures
EpiAirway tissue cultures were obtained from Mattek (AIR-100). Cultures were derived from asthmatic donors. In a cell culture insert, human derived tracheal/bronchial epithelial cells were grown and differentiated on a porous membrane support, allowing an air-liquid interface with warmed culture medium below the cells and a gaseous test atmosphere above. Tissues were cultured in maintenance media (Mattek, AIR-100-MM) in a 37° C., 5% CO2 humidified incubator. Four donors were tested. On Day 0, tissue cultures were treated with test compounds at 10 μM, 1 μM and/or 0.1 μM. Compounds were diluted in dimethyl sulfoxide (DMSO, Sigma) to a final concentration of 0.1%. DMSO at 0.1% was used as a vehicle control. Test compounds were incubated with cultures for 1 hour at 37° C., 5% CO2, followed by the addition of pre-warmed media containing IFNγ (R&D Systems) or IL-27 (R&D Systems) at a final concentration at 100 ng/ml. Tissue cultures were maintained for 8 days. Media was replaced every 2 days with fresh media containing compounds and IFNγ or IL-27. On Day 8, tissue cultures and supernatants were collected for analysis. Supernatant samples were assayed for CXCL10 (IP-10) and CXCL9 (MIG) using luminex analysis (EMD Millipore). Data is expressed as % Inhibition +/−standard deviation (±STDV). Percent inhibition was determined by compound inhibitory potency against IFNγ or IL-27 induced CXCL10 or CXCL9 secretion compared to vehicle treated cells. Data is the average from 3 or 4 donors. […] The compound of example 2 was able to inhibit IFNγ induced CXCL9 secretion by 93%±13 (at 10 μM) and 24%±49 (at 1 μM) when compared to vehicle.

[3] = read-out: % inhibition of IL-27 induced CXCL9 secretion
[4] = read-out: % inhibition of IL-27 induced CXCL10 secretion

In the case of CCc1cc(O)c(F)cc1-c1ccc2c(-c3nc4c([nH]3)CN(C(C)C)[C@H](C(=O)N3CC(N(C)C)C3)C4)n[nH]c2c1 [Example 2, (S)-(3-(dimethylamino)azetidin-1-yl)(2-(6-(2-ethyl-5-fluoro-4-hydroxyphenyl)-1H-indazol-3-yl)-5-isopropyl-4,5,6,7-tetrahydro-3H-imidazo[4,5-c]pyridin-6-yl)methanone], the “pSTAT6 inhibition Assay 4” value [1] is reported as “B (B represents between 40% and 60% inhibition)”, the Ki (JAK1) is reported as 0.04 nM and the Ki (JAK3) is reported as 0.1 nM. For the same compound, the inhibition at 0.1 µM [2, 3] was 57%, the inhibition at 0.1 µM [2, 4] was 69% and the inhibition at 1 µM [2, 3] was 97%. The inhibition at 1 µM [2, 4] was 101%, the inhibition at 10 µM [2, 3] was 100% and the inhibition at 10 µM [2, 4] was 108%.
